ChEMBL document CHEMBL5046225, “Discovery and Optimization of Orally Bioavailable Phthalazone and Cinnolone Carboxylic Acid Derivatives as S1P2 Antagonists against Fibrotic Diseases” (J Med Chem, 2021)
Converted amounts (≈) assume the structure as drawn.

Legend:
[1] = biological target: T1, Sphingosine 1-phosphate receptor 2 (Homo sapiens, UniProt O95136); experiment: Antagonist activity at S1P2 (unknown origin); type: functional
[2] = biological target: Sphingosine 1-phosphate receptor 1 (Homo sapiens, UniProt P21453); experiment: Antagonist activity at human S1P1 receptor expressed in CHO cells assessed as inhibition of calcium flux; type: functional, cell-based
[3] = biological target: T1, Sphingosine 1-phosphate receptor 2; experiment: Antagonist activity at human S1P2 receptor expressed in CHO cells assessed as inhibition of calcium flux
[4] = biological target: T1, Sphingosine 1-phosphate receptor 2; experiment: Antagonist activity at human S1P2 receptor expressed in CHO cells assessed as inhibition of [35S]GTPgammaS binding
[5] = biological target: T1, Sphingosine 1-phosphate receptor 2; experiment: Displacement of sphingosine D-erythro [3-3H] I- phosphate from human S1P2 receptor expressed in CHO cell membrane
[6] = biological target: T1, Sphingosine 1-phosphate receptor 2; experiment: Agonist activity at human S1P2 receptor expressed in CHO cells assessed as increase in calcium flux
[7] = Lipophilicity, logD of the compound at pH 7.4 by chromatographic method; details: buffer
cells = details: Homo sapiens, HFL1
[8] = biological target: T1, Sphingosine 1-phosphate receptor 2
[9] = biological target: T1, Sphingosine 1-phosphate receptor 2; remark: listed apart in the source
PXR = biological target: T2, PXR (Homo sapiens, UniProt O75469); experiment: Activation of PXR in human DPX2 cells at 10 uM incubated for 24 hrs relative to control; type: ADME, cell-based; details: read-out: Activity
T2 sequence (O75469 whole entry): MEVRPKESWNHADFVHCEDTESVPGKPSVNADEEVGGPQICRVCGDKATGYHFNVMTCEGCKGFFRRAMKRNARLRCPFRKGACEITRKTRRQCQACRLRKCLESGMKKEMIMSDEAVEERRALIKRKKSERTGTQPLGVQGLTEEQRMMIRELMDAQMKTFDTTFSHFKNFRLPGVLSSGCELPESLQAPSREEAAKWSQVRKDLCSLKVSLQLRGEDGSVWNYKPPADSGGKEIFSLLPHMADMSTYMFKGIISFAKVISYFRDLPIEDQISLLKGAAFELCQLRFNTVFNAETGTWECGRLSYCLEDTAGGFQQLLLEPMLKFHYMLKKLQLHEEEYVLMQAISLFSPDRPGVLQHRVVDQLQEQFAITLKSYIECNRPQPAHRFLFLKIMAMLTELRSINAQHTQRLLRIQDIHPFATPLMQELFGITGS

Cytochrome P450 3A4 = Cytochrome P450 3A4 (Homo sapiens, UniProt P08684); experiment: Induction of CYP3A4 in human cryopreserved hepatocytes assessed as mRNA expression at 10 uM incubated for 72 hrs relative to control; type: ADME, cell-based, Hepatocyte
CYP450 = CYP450 (Homo sapiens, UniProt P04798+P05177+P05181+P08684+P10632+P10635+P11509+P11712+P13584+P20813+P20815+P20853+P24462+P24903+P33260+P33261+P51589+P78329+P98187+Q02928+Q08477+Q16678+Q16696+Q5TCH4+Q6VVX0+Q7Z449+Q8TAV3+Q96SQ9+Q9HB55); experiment: Inhibition of CYP450 in human liver microsomes; type: ADME
[10] = Apparent permeability across apical to basolateral side in human Caco-2 cells at pH 6.5 at 10 uM incubated for 60 mins by UHPLC analysis; details: Caco-2, pH 6.5
[11] = Half life in CD1 mouse at 1 mg/kg, iv measured up to 24 hrs by LC-MS/MS analysis; details: in vivo
in vivo = details: CD1, mouse, po, 5 mg/kg
[12] = Apparent permeability across apical to basolateral side in MDCK-MDR1 cells at 10 uM incubated for 1 hr by LC-MS/MS analysis; details: dog
[13] = Volume of distribution at steady state in CD1 mouse at 1 mg/kg, iv measured up to 24 hrs by LC-MS/MS analysis; details: in vivo
[14] = Thermodynamic solubility of compound at pH 7.4; details: buffer
[15] = Efflux ratio of apparent permeability across apical to basolateral side in human Caco-2 cells at pH 6.5 at 10 uM incubated for 60 mins by UHPLC analysis; details: Caco-2, pH 6.5
[16] = Efflux ratio of apparent permeability across apical to basolateral side in MDCK-MDR1 cells at 10 uM incubated for 1 hr by LC-MS/MS analysis; details: dog
[17] = Unbound plasma concentration in CD1 mouse at 5 mg/kg, po or 1 mg/kg, iv measured up to 24 hrs by LC-MS/MS analysis

Sequence of Sphingosine 1-phosphate receptor 1 (P21453 whole entry): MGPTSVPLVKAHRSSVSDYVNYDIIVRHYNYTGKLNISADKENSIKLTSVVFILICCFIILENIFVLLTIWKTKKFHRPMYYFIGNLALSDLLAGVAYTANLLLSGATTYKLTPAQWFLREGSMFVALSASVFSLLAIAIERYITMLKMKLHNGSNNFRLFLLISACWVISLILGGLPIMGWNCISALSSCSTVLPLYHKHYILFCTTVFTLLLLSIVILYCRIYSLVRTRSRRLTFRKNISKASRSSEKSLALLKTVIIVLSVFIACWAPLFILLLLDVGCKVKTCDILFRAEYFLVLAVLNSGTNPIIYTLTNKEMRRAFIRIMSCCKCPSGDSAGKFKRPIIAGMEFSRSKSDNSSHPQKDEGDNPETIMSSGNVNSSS
T1 sequence (O95136 whole entry): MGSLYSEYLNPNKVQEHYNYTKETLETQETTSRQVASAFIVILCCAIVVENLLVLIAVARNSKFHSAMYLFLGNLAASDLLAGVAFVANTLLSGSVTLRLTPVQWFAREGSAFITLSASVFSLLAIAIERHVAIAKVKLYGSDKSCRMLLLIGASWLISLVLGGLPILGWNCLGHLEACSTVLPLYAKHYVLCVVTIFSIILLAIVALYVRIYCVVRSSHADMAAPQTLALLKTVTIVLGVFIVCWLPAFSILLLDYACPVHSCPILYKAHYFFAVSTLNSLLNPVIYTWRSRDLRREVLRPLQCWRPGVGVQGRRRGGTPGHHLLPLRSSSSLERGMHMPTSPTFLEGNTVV
Sequence of Cytochrome P450 3A4 (P08684 whole entry): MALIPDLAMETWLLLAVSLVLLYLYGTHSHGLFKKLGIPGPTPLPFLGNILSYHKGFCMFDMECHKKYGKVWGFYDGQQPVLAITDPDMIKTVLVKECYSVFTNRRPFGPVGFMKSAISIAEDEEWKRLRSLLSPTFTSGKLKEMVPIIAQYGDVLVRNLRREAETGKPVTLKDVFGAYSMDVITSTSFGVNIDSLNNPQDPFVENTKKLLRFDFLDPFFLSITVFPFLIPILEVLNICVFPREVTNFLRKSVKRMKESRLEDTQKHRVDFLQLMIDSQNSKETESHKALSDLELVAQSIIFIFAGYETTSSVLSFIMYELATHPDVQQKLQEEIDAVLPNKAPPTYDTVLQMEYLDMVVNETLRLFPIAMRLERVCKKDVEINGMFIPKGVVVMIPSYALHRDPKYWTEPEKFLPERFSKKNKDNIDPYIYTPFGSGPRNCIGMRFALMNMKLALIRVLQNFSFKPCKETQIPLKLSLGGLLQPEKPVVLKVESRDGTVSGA

SMILES | IC50 [2] [µM] | IC50 [3] [µM] | IC50 [4] [µM] | IC50 [5] [µM] | IC50 [6] [µM] | chromatographic logD [7] | further results
Cc1nn(C)c2nc(NNC(=O)Nc3cc(Cl)nc(Cl)c3)cc(C(C)C)c12 | – | – | – | – | – | – | IC50 [1]: 0.017 µM
COc1cc(OC)c(NC(=O)Cc2nn(CC(=O)O)c(=O)c3ccccc23)cc1Cl | > 19.9 | – | – | – | – | – | –
C[C@H](C(=O)O)n1nc(Cn2cc3cc(OCC4CC4)c(Cl)cc3n2)c2ccccc2c1=O | – | – | – | – | – | – | activity at 24 h, 10 µM (PXR): 5.7%; Activity (Cytochrome P450 3A4): 4.4%; IC50 (CYP450): > 100 µM
COc1ccc(NC(=O)Cc2nn(CC(=O)O)c(=O)c3ccccc23)c(OC)c1 | – | > 19.9 | – | – | > 23.3 | 1.13 | –
COc1cc(OC)c(NC(=O)Cc2cn(CC(=O)O)c3ccccc23)cc1Cl | > 19.9 | > 6.64 | 17.7 | 10.7 | > 23.3 | 2.13 | –
CC(C(=O)O)c1nn(Cc2cn3cc(OCC4CC4)c(C(F)(F)F)cc3n2)c2ccccc2c1=O (racemic) | – | 0.0034 | 0.051 | – | – | 2.99 | IC50 (cells): 0.0007 µM; Papp A→B at 1 h, 10 µM [10]: 150 nm/s; half-life at 24 h [11]: 1.9 h; Cmax at 24 h (in vivo): 3.52 µg/mL; Papp A→B at 1 h, 10 µM [12]: 25 nm/s; Vd at 24 h [13]: 0.66 L/kg; IC50 [8]: 0.005 µM; solubility thermodynamic [14]: 0.221 mg/mL (≈ 454 µM); efflux ratio at 1 h, 10 µM [15]: 0.4; efflux ratio at 1 h, 10 µM [16]: 3.7; fraction unbound at 24 h [17]: 0.007; IC50 [9]: 0.056 µM

Second part, led by results:

IC50 [2] [µM] | IC50 [3] [µM] | IC50 [4] [µM] | IC50 [5] [µM] | IC50 [6] [µM] | chromatographic logD [7] | SMILES | further results
> 19.9 | 3.36 | 8.98 | 2.01 | > 23.3 | 1.86 | COc1cc(OC)c(NC(=O)Cn2nc(CC(=O)O)c3ccccc32)cc1Cl | –
– | 0.149 | 0.113 | – | – | – | CCOc1cc2cn(Cc3nn(CC(=O)O)c(=O)c4ccccc34)nc2cc1Cl | IC50 (cells): 0.034 µM; IC50 [8]: 0.023 µM; IC50 [9]: 1.62 µM
> 19.9 | > 8.13 | 19.2 | 3.79 | > 23.3 | 5.91 | COc1cc(OC)c(NC(=O)Cc2cn(C)c3ccccc23)cc1Cl | –
– | 0.199 | 0.473 | – | – | 5.42 | CCn1nc(CC(=O)Nc2ccc(OC(F)(F)F)c(Cl)c2)c2ccccc2c1=O | –
